Measured values published in patent US7635716B2, “Substituted cyclopentanes or cyclopentanones as therapeutic agents” (Allergan, Inc., priority 2005, dated 2009).
Where two headings read alike, the source gives them in different places.

Experiments:
Assay in all cases: FLIPR calcium signal, HEK-293(EBNA) cells
Type in all cases: cell-based
hEP2/Gqs5 = target: T1, hEP2/Gqs5 (Homo sapiens, UniProt P43116)
T1 construct: expressed in transfected cells; host or cells: HEK-293(EBNA) cells
In short: (§1)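 Peak Fluo-4 fluorescence (2 µM dye loading, 45 min) was recorded in HEK-293(EBNA) cells stably expressing each human receptor, in HBSS-HEPES pH 7.4 at 37 °C. Signals were expressed relative to buffer and standard agonist controls: PGE2 (EP2, EP4), PGF2 (FP), carbacyclin (IP). Compounds were tested at 10^−5 M or from 10^−5 to 10^−11 M, in duplicate, n≧3.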

hEP3A/Gqi5 = target: T2, hEP3A/Gqi5 (Homo sapiens, UniProt P43115)
T2 construct: expressed in transfected cells; host or cells: HEK-293(EBNA) cells
T2 sequence (P43115 1-390): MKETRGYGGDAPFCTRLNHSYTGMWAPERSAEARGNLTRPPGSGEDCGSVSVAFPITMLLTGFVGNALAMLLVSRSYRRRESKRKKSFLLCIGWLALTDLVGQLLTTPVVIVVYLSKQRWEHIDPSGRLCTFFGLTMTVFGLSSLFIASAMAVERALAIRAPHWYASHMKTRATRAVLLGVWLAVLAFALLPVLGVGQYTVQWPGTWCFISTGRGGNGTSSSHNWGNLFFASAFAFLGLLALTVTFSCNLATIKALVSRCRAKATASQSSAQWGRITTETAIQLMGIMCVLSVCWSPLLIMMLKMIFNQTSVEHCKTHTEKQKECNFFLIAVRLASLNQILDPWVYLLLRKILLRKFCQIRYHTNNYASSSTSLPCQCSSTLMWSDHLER

hEP4/Gqs5 = target: T3, hEP4/Gqs5 (Homo sapiens, UniProt P35408)
T3 construct: expressed in transfected cells; host or cells: HEK-293(EBNA) cells
T3 sequence (P35408 whole entry): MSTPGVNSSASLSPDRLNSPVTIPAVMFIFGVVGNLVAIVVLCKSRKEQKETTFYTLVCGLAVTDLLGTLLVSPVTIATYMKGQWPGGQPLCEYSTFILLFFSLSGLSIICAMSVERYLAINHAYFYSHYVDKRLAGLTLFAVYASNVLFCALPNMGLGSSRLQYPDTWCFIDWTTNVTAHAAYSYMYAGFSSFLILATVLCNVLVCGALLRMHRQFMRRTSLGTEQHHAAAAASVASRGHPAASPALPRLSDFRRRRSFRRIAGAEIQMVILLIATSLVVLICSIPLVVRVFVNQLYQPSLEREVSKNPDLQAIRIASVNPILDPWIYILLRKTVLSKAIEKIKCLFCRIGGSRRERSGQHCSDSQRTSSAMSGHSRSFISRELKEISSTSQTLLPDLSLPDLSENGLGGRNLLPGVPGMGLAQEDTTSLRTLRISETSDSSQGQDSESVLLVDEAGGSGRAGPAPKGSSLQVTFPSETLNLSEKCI
In short: as §1

hTP = target: T4, hTP (Homo sapiens, UniProt P21731)
T4 construct: expressed in transfected cells; host or cells: HEK-293(EBNA) cells
T4 sequence (P21731 1-343): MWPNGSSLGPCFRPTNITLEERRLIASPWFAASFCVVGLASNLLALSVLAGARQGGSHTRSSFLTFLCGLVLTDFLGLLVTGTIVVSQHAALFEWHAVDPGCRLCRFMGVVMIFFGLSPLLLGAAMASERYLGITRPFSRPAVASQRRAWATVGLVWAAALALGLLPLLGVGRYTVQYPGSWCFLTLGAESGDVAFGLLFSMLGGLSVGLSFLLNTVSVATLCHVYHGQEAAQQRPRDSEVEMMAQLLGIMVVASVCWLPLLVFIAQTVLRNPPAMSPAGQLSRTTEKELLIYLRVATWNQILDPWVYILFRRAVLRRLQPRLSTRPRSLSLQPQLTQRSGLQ

hEP1 = target: T5, hEP1 (Homo sapiens, UniProt P34995)
T5 construct: expressed in transfected cells; host or cells: HEK-293(EBNA) cells
T5 sequence (P34995 1-402): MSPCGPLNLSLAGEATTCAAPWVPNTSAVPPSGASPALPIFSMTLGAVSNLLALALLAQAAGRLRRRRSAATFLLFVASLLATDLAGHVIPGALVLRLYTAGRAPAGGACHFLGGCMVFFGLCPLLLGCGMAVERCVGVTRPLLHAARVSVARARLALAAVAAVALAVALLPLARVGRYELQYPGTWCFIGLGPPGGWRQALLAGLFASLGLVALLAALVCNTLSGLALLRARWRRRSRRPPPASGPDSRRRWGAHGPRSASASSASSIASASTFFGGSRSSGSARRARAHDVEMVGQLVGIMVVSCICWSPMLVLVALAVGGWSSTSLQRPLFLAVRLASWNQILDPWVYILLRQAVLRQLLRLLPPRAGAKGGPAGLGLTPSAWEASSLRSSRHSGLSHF

[1] = Table 1, first part, triplicate, read-out: functional data (EC50) hEP2
[2] = Table 1, first part, data represents a single experiment, read-out: functional data (EC50) hEP3A*
[3] = Table 1, second part, quantity not given, values match functional data (EC50) of first part, read-out: Other Receptors hEP3
[4] = Table 1, first part, triplicate, read-out: functional data (EC50) hEP4
[5] = Table 1, first part, triplicate, read-out: functional data (EC50) hTP
[6] = Table 1, second part, quantity not given, values match functional data (EC50) of first part, read-out: Other Receptors hTP
[7] = Table 1, first part, triplicate, read-out: functional data (EC50) hEP1
[8] = Table 1, second part, quantity not given, values match functional data (EC50) of first part, read-out: Other Receptors hEP1
[9] = Table 1, second part, read-out: hEP2 flipr EC50
[10] = Table 1, second part, read-out: hEP4 flipr EC50

T1 sequence (P43116 whole entry): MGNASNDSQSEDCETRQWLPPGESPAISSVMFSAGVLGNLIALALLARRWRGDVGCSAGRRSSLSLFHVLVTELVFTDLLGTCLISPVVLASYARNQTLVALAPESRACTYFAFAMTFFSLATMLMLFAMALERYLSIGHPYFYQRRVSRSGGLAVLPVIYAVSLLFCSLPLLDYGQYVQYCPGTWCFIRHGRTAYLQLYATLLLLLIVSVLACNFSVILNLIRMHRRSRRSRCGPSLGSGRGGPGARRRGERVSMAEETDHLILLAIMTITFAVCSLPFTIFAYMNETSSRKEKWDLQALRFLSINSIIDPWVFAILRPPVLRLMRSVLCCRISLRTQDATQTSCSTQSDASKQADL

Molecule	EC50 (hEP2/Gqs5; [1]) [nM]	EC50 (hEP3A/Gqi5; [2]) [µM]	EC50 (hEP3A/Gqi5; [3]) [µM]	EC50 (hEP4/Gqs5; [4]) [nM]	EC50 (hTP; [5]) [µM]	EC50 (hTP; [6]) [µM]	EC50 (hEP1; [7]) [µM]	EC50 (hEP1; [8]) [µM]	EC50 (hEP2/Gqs5; [9]) [nM]	EC50 (hEP4/Gqs5; [10]) [nM]
O=C(O)CCCCCC[C@H]1C(=O)CC[C@@H]1COc1ccccc1 [Example 6, 7-((1R,5S)-2-Oxo-5-phenoxymethyl-cyclopentyl)-heptanoic acid]	731	3.55	3.55	7880	> 10	> 10				
O=C(O)CCC/C=C\C[C@@H]1[C@@H](COc2ccccc2)[C@H](O)C[C@H]1Cl [Example 8, (Z)-7-((1R,2S,3R,5R)-5-Chloro-3-hydroxy-2-phenoxymethyl-cyclopentyl)-hept-5-enoic acid]	230	7.33	7.33	3200	> 10	> 10	> 10	> 10		
O=C(O)CCCCCC[C@@H]1[C@@H](COc2ccccc2)[C@H](O)C[C@H]1Cl [Example 10, 7-((1R,2S,3R,5R)-5-Chloro-3-hydroxy-2-phenoxymethyl-cyclopentyl)-heptanoic acid]	123	3.51	3.51	7210	> 10	> 10	> 10	> 10		
O=C(O)CCC/C=C\C[C@@H]1[C@@H](COc2cc(Cl)cc(Cl)c2)[C@H](O)C[C@H]1Cl [Example 12, (Z)-7-[(1R,2S,3R,5R)-5-Chloro-2-(3,5-dichloro-phenoxymethyl)-3-hydroxy-cyclopentyl]-hept-5-enoic acid]	0.8	1.26	1.26	48	> 10	> 10	> 10	> 10	0.8	48
O=C(O)CCCCCC[C@@H]1[C@@H](COc2cc(Cl)cc(Cl)c2)[C@H](O)C[C@H]1Cl [Example 14, 7-[(1R,2S,3R,5R)-5-Chloro-2-(3,5-dichloro-phenoxymethyl)-3-hydroxy-cyclopentyl]-heptanoic acid]	24	3.49	3.49	152	> 10	> 10	> 10	> 10		
(Z)-7-((1R,2S,3R)-3-Hydroxy-5-oxo-2-phenoxymethyl-cyclopentyl)-hept-5-enoic acid [Example 4]	5150	18.5		> 10000	> 10		> 10		> 10000	360
(Z)-7-((1R,5S)-2-Oxo-5-phenoxymethyl-cyclopent-3-enyl)-hept-5-enoic acid [Example 3]	> 10000		18.5	360		> 10		> 10	5150	> 10000
